Experimental data as given in patent US20220333108A1, “COMBINATIONS OF SIRNAS WITH SIRNAS AGAINST SULF2 OR GPC3 FOR USE IN TREATING CANCER” (Sirnaomics, Inc., priority 2021, published 2022).

Test system: HepG2 cells
Assay: Sulf2 silencing and Sorafenib in liver cancer cell model
Type: cell-based
Conditions: Homo sapiens, Sorafenib exposure 72 h, read-out: IC50 in inhibiting tumor growth (Sorafenib)
Procedure: The effect of Sulf2 silencing in combination with Sorafenib in a liver cancer cell model (HepG2 cells) was studied. HepG2 cells incubated with various concentrations of SULF2_1 siRNA for 96 h, and Sorafenib (404) was added after 24 h to allow exposure for 72 h.

IC50: ~4 µM
SMILES: CNC(=O)c1cc(Oc2ccc(NC(=O)Nc3ccc(Cl)c(C(F)(F)F)c3)cc2)ccn1 [Sorafenib, sorafenib]
